Experimental data from paper PMC4858680, “A platinum-based hybrid drug design approach to circumvent acquired resistance to molecular targeted tyrosine kinase inhibitors” (Scientific Reports, 2016).

Experiments:
[1] = test system: K562 Ima1.0; assay: Anticancer activity in imatinib-selected resistant K562 subline; assay type: cell-based; conditions: read-out: Anticancer activity (IC50) K562 Imatinib selected (K562 Ima1.0); Bcr-Abl amplification
[2] = biological target: EGFR(L861Q) (Homo sapiens, UniProt P00533, L861Q); conditions: 10 μM
[3] = biological target: EGFR (Homo sapiens, UniProt P00533); conditions: 10 μM
[4] = biological target: ABL1(Q252H)-nonphosphorylated (Homo sapiens, UniProt P00519, Q252H); conditions: 10 μM
[5] = biological target: ABL1(F317L)-phosphorylated (Homo sapiens, UniProt P00519, F317L); conditions: 10 μM
[6] = biological target: ABL1(Y253F)-phosphorylated (Homo sapiens, UniProt P00519, Y253F); conditions: 10 μM
[7] = biological target: ABL1(E317I)-nonphosphorylated (Homo sapiens, UniProt P00519, F317I); conditions: 10 μM
[8] = biological target: ABL1(F317I)-phosphorylated (Homo sapiens, UniProt P00519, F317I); conditions: 10 μM
[9] = biological target: ABL1-nonphosphorylated (Homo sapiens, UniProt P00519); assay: biochemical; conditions: read-out: Percent control
[10] = biological target: ABL1(T315I)-phosphorylated (Homo sapiens, UniProt P00519, T315I); assay: biochemical; conditions: read-out: Percent control
[11] = biological target: T1, FLT3(N841I) (Homo sapiens, UniProt P36888, N841I); assay: biochemical; conditions: read-out: Percent control
T1 sequence (P36888 27-993 N841I): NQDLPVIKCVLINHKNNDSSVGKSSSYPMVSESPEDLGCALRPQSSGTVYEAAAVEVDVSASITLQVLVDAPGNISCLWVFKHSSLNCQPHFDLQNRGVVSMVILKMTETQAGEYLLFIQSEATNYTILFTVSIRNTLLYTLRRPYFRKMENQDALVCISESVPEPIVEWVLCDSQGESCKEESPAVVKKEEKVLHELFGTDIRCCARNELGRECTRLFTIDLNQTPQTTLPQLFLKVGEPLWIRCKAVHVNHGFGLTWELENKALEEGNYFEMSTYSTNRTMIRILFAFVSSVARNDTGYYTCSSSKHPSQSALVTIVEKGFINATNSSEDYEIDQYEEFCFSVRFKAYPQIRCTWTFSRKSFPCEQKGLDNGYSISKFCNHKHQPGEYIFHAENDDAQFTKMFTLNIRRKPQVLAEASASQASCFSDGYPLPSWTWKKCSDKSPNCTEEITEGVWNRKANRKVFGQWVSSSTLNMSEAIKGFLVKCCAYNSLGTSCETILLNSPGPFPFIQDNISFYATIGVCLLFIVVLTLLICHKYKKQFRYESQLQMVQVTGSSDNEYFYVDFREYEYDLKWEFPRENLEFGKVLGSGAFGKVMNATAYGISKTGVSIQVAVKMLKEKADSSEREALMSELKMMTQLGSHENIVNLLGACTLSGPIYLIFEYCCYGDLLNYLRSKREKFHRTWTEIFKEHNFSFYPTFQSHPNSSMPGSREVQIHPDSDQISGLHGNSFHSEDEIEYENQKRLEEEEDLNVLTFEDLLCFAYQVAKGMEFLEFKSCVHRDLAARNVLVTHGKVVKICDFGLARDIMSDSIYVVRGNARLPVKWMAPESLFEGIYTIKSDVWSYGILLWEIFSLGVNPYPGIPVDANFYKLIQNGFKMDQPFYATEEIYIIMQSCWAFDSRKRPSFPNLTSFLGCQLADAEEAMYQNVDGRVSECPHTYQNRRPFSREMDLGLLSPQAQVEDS

[12] = biological target: ABL1(T315I)-nonphosphorylated (Homo sapiens, UniProt P00519, T315I); assay: biochemical; conditions: read-out: Percent control
[13] = biological target: EGFR(L858R) (Homo sapiens, UniProt P00533, L858R); assay: biochemical; conditions: read-out: Percent control
[14] = biological target: T2, ZAP70 (Homo sapiens, UniProt P43403); assay: biochemical; conditions: read-out: Percent control
T2 sequence (P43403 1-619): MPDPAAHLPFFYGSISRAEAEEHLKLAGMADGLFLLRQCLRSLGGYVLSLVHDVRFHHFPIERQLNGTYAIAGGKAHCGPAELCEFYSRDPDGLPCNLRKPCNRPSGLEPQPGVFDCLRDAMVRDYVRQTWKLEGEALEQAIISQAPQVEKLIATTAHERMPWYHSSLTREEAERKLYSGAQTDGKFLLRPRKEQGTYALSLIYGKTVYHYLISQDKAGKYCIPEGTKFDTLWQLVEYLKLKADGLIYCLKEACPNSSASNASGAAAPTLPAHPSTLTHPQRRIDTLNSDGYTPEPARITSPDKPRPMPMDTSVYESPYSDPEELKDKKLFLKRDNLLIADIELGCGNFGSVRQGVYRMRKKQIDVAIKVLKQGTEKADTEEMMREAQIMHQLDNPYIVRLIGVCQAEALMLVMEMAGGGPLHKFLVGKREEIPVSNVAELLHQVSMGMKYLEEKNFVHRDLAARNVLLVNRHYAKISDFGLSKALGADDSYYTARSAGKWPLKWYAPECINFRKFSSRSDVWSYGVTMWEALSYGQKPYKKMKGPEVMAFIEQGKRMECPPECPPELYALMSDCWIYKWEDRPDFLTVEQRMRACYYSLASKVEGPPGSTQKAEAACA

[15] = biological target: FRK (Homo sapiens, UniProt P42685); assay: biochemical; conditions: read-out: Percent control
Chain of FRK (P42685 whole entry): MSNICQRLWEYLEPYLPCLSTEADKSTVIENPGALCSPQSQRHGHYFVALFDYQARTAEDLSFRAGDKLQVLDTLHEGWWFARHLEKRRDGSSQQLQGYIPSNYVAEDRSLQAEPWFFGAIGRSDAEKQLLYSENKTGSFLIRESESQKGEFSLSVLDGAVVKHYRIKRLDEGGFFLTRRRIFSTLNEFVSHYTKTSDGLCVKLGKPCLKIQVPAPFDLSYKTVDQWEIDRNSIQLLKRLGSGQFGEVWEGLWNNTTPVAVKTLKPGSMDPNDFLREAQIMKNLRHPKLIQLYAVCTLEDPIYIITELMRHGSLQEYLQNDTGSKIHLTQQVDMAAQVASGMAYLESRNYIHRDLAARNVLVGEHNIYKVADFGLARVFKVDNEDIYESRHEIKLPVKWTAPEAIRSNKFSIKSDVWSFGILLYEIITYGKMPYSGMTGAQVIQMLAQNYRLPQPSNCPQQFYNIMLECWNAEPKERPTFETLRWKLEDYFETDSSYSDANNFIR

Chain of EGFR(L861Q) (P00533 25-1210 L861Q): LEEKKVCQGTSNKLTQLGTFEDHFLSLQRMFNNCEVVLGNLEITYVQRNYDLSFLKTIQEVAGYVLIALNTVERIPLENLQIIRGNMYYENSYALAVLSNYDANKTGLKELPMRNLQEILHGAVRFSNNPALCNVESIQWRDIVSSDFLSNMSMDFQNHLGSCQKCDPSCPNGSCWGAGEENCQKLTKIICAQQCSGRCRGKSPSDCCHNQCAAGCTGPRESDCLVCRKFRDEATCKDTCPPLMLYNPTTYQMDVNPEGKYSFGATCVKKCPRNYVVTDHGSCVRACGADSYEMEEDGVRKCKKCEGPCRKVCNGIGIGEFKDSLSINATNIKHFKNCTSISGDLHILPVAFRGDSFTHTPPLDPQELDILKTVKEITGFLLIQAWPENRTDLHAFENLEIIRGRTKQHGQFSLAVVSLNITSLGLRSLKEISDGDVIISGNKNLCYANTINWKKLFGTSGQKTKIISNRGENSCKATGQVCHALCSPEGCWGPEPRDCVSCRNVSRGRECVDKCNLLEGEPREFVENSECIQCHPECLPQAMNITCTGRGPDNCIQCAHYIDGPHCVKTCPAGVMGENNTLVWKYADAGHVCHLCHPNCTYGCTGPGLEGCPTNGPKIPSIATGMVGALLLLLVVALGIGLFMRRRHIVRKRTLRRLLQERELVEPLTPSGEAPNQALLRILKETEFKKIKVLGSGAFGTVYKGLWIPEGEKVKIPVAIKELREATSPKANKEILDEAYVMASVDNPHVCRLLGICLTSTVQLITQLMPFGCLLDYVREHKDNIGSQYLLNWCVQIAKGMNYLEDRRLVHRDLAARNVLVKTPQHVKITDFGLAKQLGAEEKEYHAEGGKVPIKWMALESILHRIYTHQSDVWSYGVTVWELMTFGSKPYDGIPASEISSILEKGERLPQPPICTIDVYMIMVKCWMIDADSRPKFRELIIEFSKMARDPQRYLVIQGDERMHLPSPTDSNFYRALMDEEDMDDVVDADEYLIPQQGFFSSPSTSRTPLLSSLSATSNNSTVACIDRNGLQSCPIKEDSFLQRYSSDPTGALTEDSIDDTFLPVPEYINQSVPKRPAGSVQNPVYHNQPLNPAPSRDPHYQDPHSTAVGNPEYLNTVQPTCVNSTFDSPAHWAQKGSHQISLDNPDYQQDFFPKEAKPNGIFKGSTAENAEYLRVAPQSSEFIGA
Chain of EGFR(L858R) (P00533 25-1210 L858R): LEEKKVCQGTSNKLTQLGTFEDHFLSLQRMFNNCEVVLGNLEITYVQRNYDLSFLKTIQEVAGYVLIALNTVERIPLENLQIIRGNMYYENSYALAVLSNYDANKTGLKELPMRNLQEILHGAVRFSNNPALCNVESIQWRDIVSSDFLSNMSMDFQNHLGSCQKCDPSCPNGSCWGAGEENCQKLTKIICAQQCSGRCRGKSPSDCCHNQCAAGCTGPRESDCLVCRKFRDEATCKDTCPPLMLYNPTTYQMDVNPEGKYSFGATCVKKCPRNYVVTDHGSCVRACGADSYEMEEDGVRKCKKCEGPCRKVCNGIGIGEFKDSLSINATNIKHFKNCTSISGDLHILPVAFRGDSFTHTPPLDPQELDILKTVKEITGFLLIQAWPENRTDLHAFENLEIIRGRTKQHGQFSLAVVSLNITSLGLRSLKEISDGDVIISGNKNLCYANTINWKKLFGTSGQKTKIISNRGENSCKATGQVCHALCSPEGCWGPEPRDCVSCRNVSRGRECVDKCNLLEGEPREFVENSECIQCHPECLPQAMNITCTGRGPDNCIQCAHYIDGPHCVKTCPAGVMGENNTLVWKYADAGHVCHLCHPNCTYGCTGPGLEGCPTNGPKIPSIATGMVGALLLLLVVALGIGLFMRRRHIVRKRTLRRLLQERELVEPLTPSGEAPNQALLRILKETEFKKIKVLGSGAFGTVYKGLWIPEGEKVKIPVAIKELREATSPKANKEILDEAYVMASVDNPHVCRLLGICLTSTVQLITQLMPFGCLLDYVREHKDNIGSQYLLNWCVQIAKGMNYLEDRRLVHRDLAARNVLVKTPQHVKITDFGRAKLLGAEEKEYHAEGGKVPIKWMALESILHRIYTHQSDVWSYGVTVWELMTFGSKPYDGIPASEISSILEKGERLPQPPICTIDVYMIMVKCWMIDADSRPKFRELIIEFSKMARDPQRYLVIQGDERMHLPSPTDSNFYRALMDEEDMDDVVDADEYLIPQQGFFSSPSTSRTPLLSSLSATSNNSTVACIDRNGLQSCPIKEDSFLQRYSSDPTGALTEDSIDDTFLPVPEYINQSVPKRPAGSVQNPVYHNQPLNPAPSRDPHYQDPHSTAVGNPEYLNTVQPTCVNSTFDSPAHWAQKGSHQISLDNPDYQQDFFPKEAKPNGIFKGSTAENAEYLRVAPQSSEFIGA
Chain of EGFR (P00533 25-1210): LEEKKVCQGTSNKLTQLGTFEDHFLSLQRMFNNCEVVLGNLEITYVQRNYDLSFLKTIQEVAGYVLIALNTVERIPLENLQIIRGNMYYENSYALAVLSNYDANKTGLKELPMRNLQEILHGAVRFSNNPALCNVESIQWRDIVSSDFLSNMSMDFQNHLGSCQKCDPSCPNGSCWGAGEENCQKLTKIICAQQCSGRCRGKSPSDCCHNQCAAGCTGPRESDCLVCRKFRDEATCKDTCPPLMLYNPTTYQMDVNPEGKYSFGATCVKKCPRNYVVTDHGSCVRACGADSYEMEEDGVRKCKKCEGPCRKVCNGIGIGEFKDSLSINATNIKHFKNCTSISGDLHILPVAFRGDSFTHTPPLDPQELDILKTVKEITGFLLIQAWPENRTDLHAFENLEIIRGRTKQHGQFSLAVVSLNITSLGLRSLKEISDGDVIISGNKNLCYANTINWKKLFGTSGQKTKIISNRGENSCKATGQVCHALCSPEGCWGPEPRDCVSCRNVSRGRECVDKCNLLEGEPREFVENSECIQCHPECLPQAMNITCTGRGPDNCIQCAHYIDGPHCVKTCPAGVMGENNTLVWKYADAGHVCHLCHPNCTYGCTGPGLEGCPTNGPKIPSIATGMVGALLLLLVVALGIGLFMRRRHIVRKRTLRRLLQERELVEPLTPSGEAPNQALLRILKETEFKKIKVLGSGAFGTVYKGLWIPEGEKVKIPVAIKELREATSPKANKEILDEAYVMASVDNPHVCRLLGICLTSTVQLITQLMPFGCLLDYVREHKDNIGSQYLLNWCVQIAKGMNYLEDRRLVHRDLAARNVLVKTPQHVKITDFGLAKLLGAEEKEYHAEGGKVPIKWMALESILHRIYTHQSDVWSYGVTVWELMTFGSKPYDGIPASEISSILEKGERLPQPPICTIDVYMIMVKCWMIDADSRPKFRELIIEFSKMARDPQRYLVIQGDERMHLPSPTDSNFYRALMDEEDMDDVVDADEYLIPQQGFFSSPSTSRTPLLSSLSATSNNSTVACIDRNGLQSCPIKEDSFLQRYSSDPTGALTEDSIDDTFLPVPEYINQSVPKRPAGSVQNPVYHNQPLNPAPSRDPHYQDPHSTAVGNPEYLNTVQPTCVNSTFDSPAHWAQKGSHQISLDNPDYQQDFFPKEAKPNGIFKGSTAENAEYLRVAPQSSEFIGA

Cc1ccc(NC(=O)c2ccc(CN3CCN(C)CC3)cc2)cc1Nc1nccc(-c2cccnc2)[n+]1[Pt-2]1([Cl])[NH2+]C2CCCCC2[NH2+]1 (stereo not drawn) [1b, oxaliplatin-imatinib]
IC50 [1]: 2920 ± 930 nM | Percent control [2]: 42% | Percent control [3]: 89%

C#Cc1cccc(Nc2c3cc(OCCOC)c(OCCOC)cc3nc[n+]2[Pt@SP2-2]([NH3+])([NH3+])[Cl])c1 [2a, cisplatin-erlotinib]
Percent control [4]: 13% | Percent control [5]: 25% | Percent control [6]: 16% | Percent control [7]: 83% | Percent control [8]: 49%

C#Cc1cccc(Nc2ncnc3cc(OCCOC)c(OCCOC)cc23)c1 [Erlotinib]
remaining activity at 10 µM [9]: 3.2% | remaining activity at 10 µM [10]: 0.6% | remaining activity at 10 µM [11]: 4.8% | remaining activity at 10 µM [12]: 5.8%

Cc1ccc(NC(=O)c2ccc(CN3CCN(C)CC3)cc2)cc1Nc1nccc(-c2cccnc2)n1 [Imatinib, reference compound]
remaining activity at 10 µM [13]: 100%

COc1cc2c(Nc3ccc(Br)cc3F)ncnc2cc1OCC1CCN(C)CC1 [Vandetanib, reference compound]
remaining activity at 10 µM [14]: 100% | remaining activity at 10 µM [15]: 1.7%
